From US11427548B2 (Arvinas Operations, Inc., priority 2015, dated 2022)
Where two headings read alike, the source gives them in different places.

Target: T1, Androgen Receptor (Homo sapiens, UniProt P10275)
T1 construct: endogenous in cells; host or cells: VCaP cells
T1 sequence (P10275 1-920): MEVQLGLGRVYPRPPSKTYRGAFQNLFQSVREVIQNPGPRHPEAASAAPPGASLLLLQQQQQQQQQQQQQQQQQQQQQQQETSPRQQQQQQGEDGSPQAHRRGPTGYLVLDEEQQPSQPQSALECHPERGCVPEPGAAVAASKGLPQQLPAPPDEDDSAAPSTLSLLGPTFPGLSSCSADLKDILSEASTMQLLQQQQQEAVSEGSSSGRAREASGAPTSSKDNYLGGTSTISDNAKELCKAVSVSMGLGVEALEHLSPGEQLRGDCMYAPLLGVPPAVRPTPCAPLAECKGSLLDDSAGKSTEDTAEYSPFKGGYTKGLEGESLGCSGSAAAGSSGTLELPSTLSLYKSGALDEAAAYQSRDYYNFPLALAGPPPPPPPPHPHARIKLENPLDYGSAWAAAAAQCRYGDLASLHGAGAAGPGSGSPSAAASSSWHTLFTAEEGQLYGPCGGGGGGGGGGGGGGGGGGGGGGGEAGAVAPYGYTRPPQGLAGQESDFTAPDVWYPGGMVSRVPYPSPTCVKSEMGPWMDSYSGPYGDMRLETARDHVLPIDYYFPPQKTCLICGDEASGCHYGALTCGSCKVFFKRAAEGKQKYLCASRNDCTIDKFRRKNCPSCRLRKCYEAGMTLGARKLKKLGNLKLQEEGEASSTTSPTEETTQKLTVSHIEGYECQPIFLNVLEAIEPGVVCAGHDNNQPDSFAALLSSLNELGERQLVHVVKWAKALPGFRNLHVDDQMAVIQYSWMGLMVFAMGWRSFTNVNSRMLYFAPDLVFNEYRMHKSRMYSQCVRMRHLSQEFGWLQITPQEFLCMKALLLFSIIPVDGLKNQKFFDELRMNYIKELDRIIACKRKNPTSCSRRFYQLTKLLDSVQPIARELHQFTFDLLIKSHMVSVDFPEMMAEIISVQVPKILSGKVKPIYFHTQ
Experiment: Androgen Receptor ELISA assay (PathScan AR ELISA) in VCaP cells: AR degradation, Dmax and DC50
Assay type: cell-based
Summary of the method: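 After 24 h exposure of VCaP cells (charcoal-stripped serum, 0.1 nM R1881 agonist, 0.1% DMSO) to seven half-log compound concentrations, residual AR in lysates was measured by PathScan ELISA (TMB absorbance, 450 nm). Cells were plated at 30,000/well and grown at least 3 days beforehand.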

[1] = read-out: VCaP DC50; VCaP cells; Table 36
[2] = VCaP cells; Table 36; read-out: VCaP DC50
[3] = VCaP, VCaP cells; Table 36; read-out: VCaP Dmax (%)

| DC50 [2] | Dmax [3] | SMILES | Dmax (VCaP, read-out: VCaP Dmax (%)) | DC50 [1] |
| --- | --- | --- | --- | --- |
| < 0.05 µM | > 71% | Cc1ncsc1-c1ccc([C@H](C)NC(=O)[C@@H]2C[C@@H](O)CN2C(=O)[C@@H](NC(=O)Cc2ccnc(N3CCN(c4ccc(C(=O)N[C@H]5C(C)(C)[C@H](Oc6ccc(C#N)c(Cl)c6)C5(C)C)cn4)CC3)c2)C(C)(C)C)cc1 [Example 644, N-((1r,3r)-3-(3-chloro-4-cyanophenoxy)-2,2,4,4-tetramethylcyclobutyl)-6-(4-(4-(2-(((S)-1-((2S,4R)-4-hydroxy-2-(((S)-1-(4-(4-methylthiazol-5-yl)phenyl)ethyl)carbam-oyl)pyrrolidin-1-yl)-3,3-dimethyl-1-oxobutan-2-yl)amino)-2-oxoethyl)pyridin-2-yl)piperazin-1-yl)nicotinamide] | – | – |
| < 0.05 µM | 51 to 70% | Cc1ncsc1-c1ccc(CNC(=O)[C@@H]2C[C@@H](O)CN2C(=O)[C@@H](NC(=O)CN2CCN(CCOc3ccc(C(=O)N[C@H]4C(C)(C)[C@H](Oc5ccc(C#N)c(Cl)c5)C4(C)C)cc3)CC2)C(C)(C)C)cc1 [Example 645, (2S,4R)-1-((S)-2-(2-(4-(2-(4-(((1r,3r)-3-(3-chloro-4-cyanophenoxy)-2,2,4,4-tetramethylcyclobutyl)carbamoyl)phenoxy)eth-yl)piperazin-1-yl)acetamido)-3,3-dimethylbutanoyl)-4-hydroxy-N-(4-(4-methylthiazol-5-yl)benzyl)pyrrolidine-2-carboxamide] | – | – |
| < 0.05 µM | > 71% | CC[C@H](NC(=O)[C@@H]1C[C@@H](O)CN1C(=O)[C@@H](NC(=O)COCCN1CCN(c2ccc(C(=O)N[C@H]3C(C)(C)[C@H](Oc4ccc(C#N)c(Cl)c4)C3(C)C)cn2)CC1)C(C)(C)C)c1ccc(-c2scnc2C)cc1 [Example 649, N-((1r,3r)-3-(3-chloro-4-cyanophenoxy)-2,2,4,4-tetramethylcyclobutyl)-6-(4-(2-(2-(((S)-1-((2S,4R)-4-hydroxy-2-(((S)-1-(4-(4-methylthiazol-5-yl)phenyl)propyl)carbam-moyl)pyrrolidin-1-yl)-3,3-dimethyl-1-oxobutan-2-yl)amino)-2-oxoethoxy)ethyl)pipera-zin-1-yl)nicotinamide] | – | – |
| > 0.501 µM | < 25% | Cc1ncsc1-c1ccc([C@H](C)NC(=O)[C@@H]2C[C@@H](OC(=O)OC(C)C)CN2C(=O)[C@@H](NC(=O)COCCCCCNc2ccc(C(=O)N[C@H]3C(C)(C)[C@H](Oc4ccc(C#N)c(Cl)c4)C3(C)C)cc2)C(C)(C)C)cc1 [Example 652, (3R,5S)-1-((S)-2-(2-((5-((4-(((1r,3r)-3-(3-chloro-4-cyanophenoxy)-2,2,4,4-tetramethylcyclobutyl)carbamoyl)phenyl)amino)pentyl)oxy)acetamido)-3,3-dimethylbutanoyl)-5-(((S)-1-(4-(4-methylthiazol-5-yl)phenyl)ethyl)carbam-oyl)pyrrolidin-3-yl isopropyl carbonate] | – | – |
| < 0.05 µM | 51 to 70% | Cc1ncsc1-c1ccc(C(C)NC(=O)[C@@H]2C[C@@H](OCOC(=O)OC(C)C)CN2C(=O)[C@@H](NC(=O)COCCCCCNc2ccc(C(=O)N[C@H]3C(C)(C)[C@H](Oc4ccc(C#N)c(Cl)c4)C3(C)C)cc2)C(C)(C)C)cc1 (stereo partly drawn) [Example 653, (((3R,5S)-1-((S)-2-(2-((5-((4-(((1r,3r)-3-(3-chloro-4-cyanophenoxy)-2,2,4,4-tetramethylcyclobutyl)carbamoyl)phenyl)amino)pentyl)oxy)acetamido)-3,3-dimethylbutanoyl)-5-(((S)-1-(4-(4-methylthiazol-5-yl)phenyl)ethyl)carbam-oyl)pyrrolidin-3-yl)oxy)methyl isopropyl carbonate] | – | – |
| < 0.05 µM | > 71% | Cc1ncsc1-c1ccc([C@H](C)NC(=O)[C@@H]2C[C@@H](O)CN2C(=O)[C@@H](NC(=O)COCCN2CCN(c3ccc(C(=O)N[C@H]4C(C)(C)[C@H](Oc5ccc(C#N)c(Cl)c5)C4(C)C)nc3)CC2)C(C)(C)C)cc1 [Example 654, N-((1r,3r)-3-(3-chloro-4-cyanophenoxy)-2,2,4,4-tetramethylcyclobutyl)-5-(4-(2-(2-(((S)-1-((2S,4R)-4-hydroxy-2-(((S)-1-(4-(4-methylthiazol-5-yl)phenyl)ethyl)carbam-oyl)pyrrolidin-1-yl)-3,3-dimethyl-1-oxobutan-2-yl)amino)-2-oxoethoxy)ethyl)pipera-zin-1-yl)picolinamide] | – | – |

The next lines start with the compound.

| SMILES | DC50 [2] | Dmax [3] | Dmax (VCaP, read-out: VCaP Dmax (%)) | DC50 [1] |
| --- | --- | --- | --- | --- |
| Cc1ncsc1-c1ccc([C@H](C)NC(=O)[C@@H]2C[C@@H](O)CN2C(=O)[C@@H](NC(=O)CN2CCOCCN(CCOc3ccc(N4C(=S)N(c5ccc(C#N)c(C(F)(F)F)c5)C(=O)C4(C)C)cc3)CCOCC2)C(C)(C)C)cc1 [Example 643, (2S,4R)-1-((S)-2-(2-(10-(2-(4-(3-(4-cyano-3-(trifluoromethyl)phenyl)-5,5-dimethyl-4-oxo-2-thioxoimidazolidin-1-yl)phenoxy)ethyl)-1,7-dioxa-4,10-diazacyclododecan-4-yl)acetamido)-3,3-dimethylbutanoyl)-4-hydroxy-N-((S)-1-(4-(4-methylthiazol-5-yl)phenyl)ethyl)pyrrolidine-2-carboxamide] | – | – | < 25% | > 0.501 µM |
| Cc1ncsc1-c1ccc(CNC(=O)[C@@H]2C[C@@H](O)CN2C(=O)[C@@H](NC(=O)CN2CCN(CCOc3ccc(C(=O)N[C@H]4C(C)(C)[C@H](Oc5ccc(C#N)c(C(F)(F)F)c5)C4(C)C)cc3)CC2)C(C)(C)C)cc1 [Example 646, (2S,4R)-1-((S)-2-(2-(4-(2-(4-(((1r,3r)-3-(4-cyano-3-(trifluoromethyl)phenoxy)-2,2,4,4-tetramethylcyclobutyl)carbamoyl)phenoxy)eth-yl)piperazin-1-yl)actamido)-3,3-dimethylbutanoyl)-4-hydroxy-N-(4-(4-methylthiazol-5-yl)benzyl)pyrrolidine-2-carboxamide] | < 0.05 µM | 26 to 50% | – | – |
| Cc1ncsc1-c1ccc([C@H](C)NC(=O)[C@@H]2C[C@@H](O)CN2C(=O)[C@@H](C(C)C)n2cc(OCCCOCCCn3cnc(-c4ccc(N5C(=S)N(c6ccc(C#N)c(C(F)(F)F)c6)C(=O)C5(C)C)cc4)c3)cn2)cc1 [Example 647, (2S,4R)-1-((R)-2-(4-(3-(3-(4-(4-(3-(4-cyano-3-(trifluoromethyl)phenyl)-5,5-dimethyl-4-oxo-2-thhioxoimidazolidin-1-yl)phenyl)-1H-imidazol-1-yl)propoxy)propoxy)-1H-pyrazol-1-yl)-3-methylbutanoyl)-4-hydroxy-N-((S)-1-(4-(4-methylthiazol-5-yl)phenyl)ethyl)pyrrolidine-2-carboxamide] | – | – | < 25% | > 0.501 µM |
| Cc1ncsc1-c1ccc([C@H](C)NC(=O)[C@@H]2C[C@@H](O)CN2C(=O)[C@H](C(C)C)n2cc(OCCCOCCCn3cnc(-c4ccc(N5C(=S)N(c6ccc(C#N)c(C(F)(F)F)c6)C(=O)C5(C)C)cc4)c3)cn2)cc1 [Example 648, (2S,4R)-1-((S)-2-(4-(3-(3-(4-(4-(3-(4-cyano-3-(trifluoromethyl)phenyl)-5,5-dimethyl-4-oxo-2-thioxoimidazolidin-1-yl)phenyl)-1H-imidazol-1-yl)propoxy)propoxy)-1H-pyrazol-1-yl)-3-methylbutanoyl)-4-hydroxy-N-((S)-1-(4-(4-methylthiazol-5-yl)phenyl)ethyl)pyrrolidine-2-carboxamide] | – | – | < 25% | > 0.501 µM |
| Cc1ncsc1-c1ccc([C@H](C)NC(=O)[C@@H]2C[C@@H](O)CN2C(=O)C(C(C)C)n2cnc(CCCCOCCCCCOc3ccc(N4C(=S)N(c5ccc(C#N)c(C(F)(F)F)c5)C(=O)C4(C)C)cc3)c2)cc1 (stereo partly drawn) [Example 650, 1-(2-(4-(4-((5-(4-(3-(4-cyano-3-(trifluoromethyl)phenyl)-5,5-dimethyl-4-oxo-2-thioxoimidazolidin-1-yl)phenoxy)pentyl)oxy)butyl)-1H-imidazol-1-yl)-3-methylbutanoyl)-4-hydroxy-N-(1-(4-(4-methylthiazol-5-yl)phenyl)ethyl)pyrroli-dine-2-carboxamide] | – | – | < 25% | > 0.501 µM |
| Cc1ncsc1-c1ccc([C@H](C)NC(=O)[C@@H]2C[C@@H](O)CN2C(=O)[C@@H](NC(=O)[C@H](CO)N2CCN(CCOc3ccc(C(=O)N[C@H]4C(C)(C)[C@H](Oc5ccc(C#N)c(Cl)c5)C4(C)C)cc3)CC2)C(C)(C)C)cc1 [Example 655, (2S,4R)-1-((S)-2-((S)-2-(4-(2-(4-(((1r,3r)-3-(3-chloro-4-cyanophenoxy)-2,2,4,4-tetramethylcyclobutyl)carbamoyl)phenoxy)eth-yl)piperazin-1-yl)-3-hydroxypropanamido)-3,3-dimethylbutanoyl)-4-hydroxy-N-((S)-1-(4-(4-methylthiazol-5-yl)phenyl)ethyl)pyrrolidine-2-carboxamide] | > 0.501 µM | – | 26 to 50% | – |
